Measurements from US20080058297A1, “Heterocyclic Compounds For Preventing And Treating Disorders Associated With Excessive Bone Loss” (Synta Pharmaceuticals Corp., priority 2003, published 2008).
Where two headings read alike, the source gives them in different places.

Experiments:
[1] = test system: Human peripheral blood mononuclear cells (PBMC); experiment: Inhibition of osteoclast formation (RANKL/M-CSF induced, TRAP staining); type: cell-based
Description: (§1) Human peripheral blood mononuclear cells (PBMC) were isolated from healthy donor blood. The cells were seeded in multi-well plates at 7.5×10^5 cells/ml in RPMI 1640 medium including 10% FBS. Osteoclast formation was induced with 20 ng/ml of recombinant human receptor activator of NF-kB-ligand (RANKL) and 10 ng/ml of human M-CSF in the presence of various doses of test compounds. After 48 hours of culture, RANKL and M-CSF was replenished and further cultured for 2 days. Then, the cultured cells were stained for tartrate-resistant acid phosphatase (TRAP). Osteoclasts were identified as TRAP-positive cells with more than 3 nuclei. Total cell viability was assessed by CCK-8 assay (Dojindo, Gaithersburg, Md.) with 24 hour incubation.
as §1, with “Isolated” for “isolated”

[2] = Total cell viability by CCK-8 assay; type: cell-based; settings: human
Description: as §1
as §1, with “Isolated” for “isolated”

[3] = 96 h, read-out: IC50 (compound concentration required for 50% inhibition of osteoclast formation), Table 1, 20 ng/ml RANKL + 10 ng/ml M-CSF, TRAP-positive cells with more than 3 nuclei
[4] = 96 h, read-out: IC50 (compound concentration required for 50% inhibition of osteoclast formation), Table 2, 20 ng/ml RANKL + 10 ng/ml M-CSF, TRAP-positive cells with more than 3 nuclei
[5] = 96 h, read-out: IC50 (compound concentration required for 50% inhibition of osteoclast formation), Table 3, 20 ng/ml RANKL + 10 ng/ml M-CSF, TRAP-positive cells with more than 3 nuclei

Structure (SMILES) | IC50 [1, 3] | CC50 at 24 h ([2]; Table 1, 24 hour incubation) | IC50 [1, 4] | CC50 at 24 h ([2]; Table 2, 24 hour incubation) | also measured
C[C@]12CC[C@@H]3c4ccc(O)cc4CC[C@H]3[C@@H]1CC[C@@H]2O [17β-estradiol, reference compound] | – | – | – | – | IC50 ([1]; read-out: IC50 (compound concentration required for 50% inhibition of osteoclast formation), Table 1, 20 ng/ml RANKL + 10 ng/ml M-CSF, TRAP-positive cells with more than 3 nuclei): 78 nM; IC50 ([1]; read-out: IC50 (compound concentration required for 50% inhibition of osteoclast formation), Table 2, 20 ng/ml RANKL + 10 ng/ml M-CSF, TRAP-positive cells with more than 3 nuclei): 78 nM; IC50 ([1]; read-out: IC50 (compound concentration required for 50% inhibition of osteoclast formation), Table 3, 20 ng/ml RANKL + 10 ng/ml M-CSF, TRAP-positive cells with more than 3 nuclei): 78 nM
Cc1cccc(/C=N/Nc2cc(N3CCOCC3)nc(OCCc3ccccn3)n2)c1 [Compound 12, N-(3-methyl-benzylidene)-N′-[6-morpholin-4-yl-2-(2-pyridin-2-yl-ethoxy)-pyrimidin-4-yl]-hydrazine] | 15 nM | 3250 nM | – | – | –
Cc1cccc(/C=N/Nc2cc(N3CCOCC3)nc(OCCc3cccc[n+]3[O-])n2)c1 [Compound 28, N-(3-methyl-benzylidene)-N′-{6-morpholin-4-yl-2-[2-(1-oxy-pyridin-2-yl)-ethoxy]-pyrimidin-4-yl}-hydrazine] | 70 nM | > 1000 nM | – | – | –
Cc1cccc(C=NNc2cc(N3CCOCC3)nc(OCC(O)c3ccccn3)n2)c1 (stereo not shown) [Compound 42, 2-{4-[N′-(3-Methyl-benzylidene)-hydrazino]-6-morpholin-4-yl-pyrimidin-2-yloxy}-1-pyridin-2-yl-ethanol] | 8 nM | > 1000 nM | – | – | –
Cc1cccc(/C=N/Nc2cc(N3CCOCC3)nc(OCCc3ccc(O)cn3)n2)c1 [Compound 43, 6-(2-{4-[N′-(3-Methyl-benzylidene)-hydrazino]-6-morpholin-4-yl-pyrimidin-2-yloxy}-ethyl)-pyridin-3-ol] | 12 nM | > 1000 nM | – | – | –
OCc1cccc(/C=N/Nc2cc(N3CCOCC3)nc(OCCc3ccc(O)cn3)n2)c1 [Compound 44, 6-(2-{4-[N′-(3-Hydroxymethyl-benzylidene)-hydrazino]-6-morpholin-4-yl-pyrimidin-2-yloxy}-ethyl)-pyridin-3-ol] | 17 nM | > 1000 nM | – | – | –
Cc1[nH]c2ccc(Nc3nc(OCCc4ccccn4)nc(N4CCOCC4)n3)cc2c1C [Compound 102] | – | – | 3 nM | > 1000 nM | –
COc1ccc(CCOc2nc(Nc3ccc4c(c3)oc3ccccc34)nc(N3CCOCC3)n2)cc1OC [Compound 113, Dibenzofuran-3-yl-{4-[2-(3,4-dimethoxy-phenyl)-ethoxy]-6-morpholin-4-yl-[1,3,5]triazin-2-yl}-amine] | – | – | 12 nM | > 1000 nM | –
c1cncc(OCCOc2nc(Nc3ccc4c(c3)oc3ccccc34)nc(N3CCOCC3)n2)c1 [Compound 114, Dibenzofuran-3-yl-{4-morpholin-4-yl-6-[2-(pyridin-3-yloxy)-ethoxy]-[1,3,5]triazin-2-yl}-amine] | – | – | 24 nM | > 1000 nM | –
Cc1[nH]c2cc(Nc3nc(OCCOc4cccnc4)nc(N4CCOCC4)n3)ccc2c1C [Compound 115, (2,3-Dimethyl-1H-indol-6-yl)-{4-morpholin-4-yl-6-[2-(pyridin-3-yloxy)-ethoxy]-[1,3,5]triazin-2-yl}-amine] | – | – | 16 nM | > 1000 nM | –
C(=NNc1nc(OCCc2ccccn2)nc(N2CCOCC2)n1)c1c[nH]c2ccccc12 [Compound 116, N-(1H-indol-3-ylmethylene)-N′-[4-morpholin-4-yl-6-(2-pyridin-2-yl-ethoxy)-[1,3,5]triazin-2-yl]-hydrazine] | – | – | 35 nM | > 10000 nM | –
Cc1cccc(Nc2nc3c(N4CCOCC4)nc(OCCOc4ccccn4)nc3[nH]2)c1 [Example 63, {6-morpholin-4-yl-2-[2-(pyridin-2-yloxy)-ethoxy]-9H-purin-8-yl}-m-tolyl-amine] | – | – | – | – | IC50 [1, 5]: 3 nM; CC50 at 24 h ([2]; Table 3, 24 hour incubation): > 1000 nM
Cc1cccc(Nc2nc(N3CCOCC3)c3nc(Nc4cccc(C)c4)[nH]c3n2)c1 [Example 79, 6-morpholin-4-yl-N^2,N^8-di-m-tolyl-9H-purine-2,8-diamine] | – | – | – | – | IC50 [1, 5]: 9 nM; CC50 at 24 h ([2]; Table 3, 24 hour incubation): > 1000 nM
Cc1cccc(Nc2nc(N3CCOCC3)c3nc(Nc4cccc(C)c4)n(C)c3n2)c1 [Example 116, 9-Methyl-6-morpholin-4-yl-N^2,N^8-di-m-tolyl-9H-purine-2,8-diamine] | – | – | – | – | IC50 [1, 5]: 2 nM; CC50 at 24 h ([2]; Table 3, 24 hour incubation): > 1000 nM
COc1ccc(N(C)c2nc(N3CCOCC3)c3nc(Nc4cccc(C)c4)[nH]c3n2)cc1 [Example 117, N^2-(4-Methoxy-phenyl)-N^2-methyl-6-morpholin-4-yl-N^8-m-tolyl-9H-purine-2,8-diamine] | – | – | – | – | IC50 [1, 5]: 12 nM; CC50 at 24 h ([2]; Table 3, 24 hour incubation): > 1000 nM
